One assay deals with CD4+ T cells. Nature of the assay: Immunological screening in vitro in CD4+ splenocytes, flow cytometry. Format: cell-based, C57BL/6 mice. The source says: Spleens were excised from C57BL/6 mice. Spleens were crushed between the frosted ends of microscope slides and filtered to provide a cellular suspension. Red blood cells were lysed through hypotonic lysis. Remaining cells were washed and filtered. CD4+ T cells were enriched within the suspension using magnetic sorting based negative selection. Cells were collected and plated within 96 well plates coated with anti-CD3 and cultured in the presence of NX-13, NX-37, NX-43, NX-44, or NX-50 at 0, 0.1, 1 or 10 micromolar; NX-53, NX-54, NX-55, or NX-56 at 0, 0.1, or 1 micromolar; or NX-45 at 10, 50 or 100 nanomolar for 48 h. During the last 6 h of culture, cells were stimulated with phorbol 12-myristate-13-acetate (PMA) and ionomycin.
Cells were collected from 96 well plates and stained with a cocktail of antibodies for immunophenotyping by flow cytometry. Culture supernatant was collected and assayed for cytokine concentrations by cytometric bead array. Data was captured on a BD FACS Celesta and analyzed using FacsDiva.
Background: Flow cytometry measures light scatter and fluorescence of single cells or particles in a stream.

Another assay relates to DSS model of colitis. The assay can be described thus: DSS model of colitis (acute model of IBD). Format: in vivo, mice. On the procedure: Mice were given 8% (w/v) DSS in drinking water for seven days to induce disruption of the epithelial layer. At project initiation, mice were 8 weeks of age and began dosing 24 hours after being placed on 8% DSS. Mice were weighed and scored daily for symptoms of disease (diarrhea, rectal bleeding, rectal inflammation, overall behavior). Treatment administration. NX-13 was prepared within a 0.5% methylcellulose (12-15 cP) solution. Dosage used was 20 mg/kg delivered once daily. Mice were weighed on a weekly basis to update dosage formulation. Dosage was calculated based off mean body weights for each gender. Oral dosage was delivered by orogastric gavage of dosage in 0.2 mL volume. Colons were collected into RPMI/FBS buffer containing collagenase (300 U/mL) and DNase (50 U/mL) for digestion. Tissues were digested for 60 minutes under stirring at 37° C. Resultant cellular suspensions were filtered through 100 μm strainers, centrifuged (300×g, 8 min), and washed in fresh RPMI. Following filtration of the resulting single cell suspensions, immune cells were purified by Percoll gradient of cell-containing 40% Percoll overlayed onto 70% Percoll solution. After centrifugation, interphase was collected and washed to obtain enriched colonic lamina propria cell fractions. Cells were labeled with mixtures of extracellular (CD45, CD3, CD4, CD8, CD19, NK1.1, CD25, F4/80, CD11b, Gr1, CX3CR1, CD64) and intracellular (Tbet, RORγT, FOXP3, IFNγ, IL17, IL10) antibodies in a sequential live staining in 96-well plates. Data was acquired using a FACS Celesta flow cytometer with FACSDiva software. Total RNA from colon and cells was generated using the Qiagen RNeasy mini kit. cDNA was generated using the BioRad iScript cDNA synthesis kit. Standard curves were generated by serial dilution of purified product from a standard PCR reaction with Taq DNA polymerase followed by purification using the Qiagen MinElute PCR purification kit. Expression levels were obtained from quantitative real-time PCR with SybrGreen supermix on a BioRad CFX96 Thermal cycler followed by normalization to expression of β-actin.

For assay [1], the system named is peripheral blood mononuclear cells (PBMCs) of Crohn's disease patients. The assay can be described thus: Ex vivo treatment of PBMCs of Crohn's disease patients, flow cytometry. Type of assay: cell-based, human. As to the method:
Samples were obtained from male and female donors clinically categorized as having moderate to severe disease. Age and current medications were not used as exclusion criteria. Whole blood was collected into heparinized vacuum tubes. Whole blood was diluted 1:3 volumes with sterile phosphate buffered saline. LeucoSep (Greiner) were prepared by addition of Lymphocyte Separation Media followed by 15 second centrifugation at max speed. Diluted whole blood was added to LeucoSep tubes. After centrifugation (2000×g, 20 min), PBMCs were collected from the interphase by Pasteur pipette. Remaining red blood cells were lysed by hypotonic lysis and suspension was filtered through a […] cell strainer. PBMCs were washed and re-suspended in sterile cell culture media, RPMI containing 10% fetal bovine serum, 2.5% Hepes solution, 1% L-glutamine, 1% penicillin/streptomycin, 1% sodium pyruvate, and 1% essential amino acids (complete RPMI).
Target cells were incubated for 24 h in complete RPMI culture media at 37° C. Cells were incubated in the presence of NX-13 ranging in concentration from 1 nM to 100 nM. NX-13 stock solution was prepared at 100 mM in dimethyl sulfoxide (DMSO) and diluted to desired concentration in culture media. DMSO concentrations were adjusted to be equal across all doses and vehicle treatments. Six hours prior to assay, cells were stimulated with phorbol 12-myristate 13-acetate (PMA) and ionomycin to stimulate cellular activation. Cells were assayed for desired data at 24 h.
Prior to collection, cells were incubated BD GolgiStop (2 μL GolgiStop to 3 mL of total media) to allow intracellular accumulation of cytokines. Cells were live stained with extracellular (CD45, CD3, CD4, CD8, CD11b) and intracellular (FOXP3, IL-10, IL-4, IFNγ, TNFα) in a sequential manner. Data was acquired on a BD FACs Celesta and analyzed using FACSDiva. Non-viable and non-singlet cells were excluded from analysis. Data is presented as percentage of CD45+ cells or % viable, singlets.

The mark [2] stands for this setting: wild-type cells, 48 h, PMA and ionomycin.
Where [3] appears, read: day 7 of DSS challenge, qRT-PCR, normalized to beta-actin.
The mark [4] stands for this setting: oral 20 mg/kg, day 7 of DSS challenge, flow cytometry.
Where [5] appears, read: PBMCs from Crohn's disease patients.

For the compound `Cc1cccc(Oc2cc(Oc3cccc(C)n3)cc(Oc3cccc(C)n3)c2)n1` [NX-13, 1,3,5-tris (6-methylpyridin-2-yloxy) benzene], the “function at NLRX1 concluded from the cytokine results” value in the assay on CD4+ T cells was “activators of NLRX1”. Also, the “effects on IFNγ and TNFα producing CD4+ T cells in the absence of NLRX1” value in the assay on CD4+ T cells (NLRX1 deficient cells) is “these effects were lost”. Moreover, in the assay on CD4+ T cells (setting [2]), the “proportion of IFNγ producing (IFNγ+) CD4+ T cells” value is “reduced” and the “proportion of TNFα producing (TNFα+) CD4+ T cells” value is reported as “reduced”. Further, in the assay on DSS model of colitis (setting [3]), the “expression of Ifng in the whole colon” value was “reduced” and the “expression of Tnfa in the whole colon” value is given as “reduced”. For the same compound, the “maximal observed reduction of disease activity” value in the assay on DSS model of colitis (oral 20 mg/kg once daily, day 6) was determined as 50%. Besides, the “number of FOXP3+ regulatory CD4+ T cells” value with DSS model of colitis (oral 20 mg/kg, colon) was “did not reduce”. In the assay on DSS model of colitis (setting [4]), the “reduction of Th1 cells in the colonic lamina propria” value was “more than 50%” and the “reduction of neutrophils in the colonic lamina propria” value was “more than 50%”. Moreover, in assay [1], the “concentrations at which IFNγ+ cells decreased” value is on record as “above 50 nM” and the “concentrations at which IL10+ CD4+ T cells increased” value is given as no less than 50 nM. In assay [1] (setting [5]), the “IFNγ+ cells” value is reported as “Dose dependent decreases”, the “IL-4 producing CD4+ T cells” value is reported as “potently decreased”, the “TNFα producing CD4+ T cells” value is on record as “potently decreased” and the “percentage of IL10+ CD4+ T cells” value is “increased”. Moreover, in assay [1] (as low as), the “concentrations at which IL-4 producing CD4+ T cells decreased” value was no less than 10 nM and the “concentrations at which TNFα producing CD4+ T cells decreased” value is recorded as no less than 10 nM.
